Each structure is given as a SMILES string.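 Compound exposure: 48 hours, 5 concentrations, 96-well plates. TGI: concentration producing complete growth inhibition.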 Peptide text beside a SMILES is read from it. * marks the point of attachment. OSu = O=C1CCC(=O)N1O*; OBn = c1ccc(CO*)cc1; Bn = c1ccc(C*)cc1

This is an account of results in PubChem BioAssay (NCI).

Among the test systems are EKVX NSCLC; K-562 leukemia; LOX IMVI melanoma; M14 melanoma; OVCAR-4 ovarian; RXF 393 renal; SF-268 CNS; SK-OV-3 ovarian; SR leukemia; HCC-2998 colon.
Holding throughout (experiment): NCI anticancer screen, dose series, 48 h

In the case of `CC(C)(C)OC(=O)N1C/C=C\C(=O)C2(OCCO2)c2ccccc21`, the TGI in the experiment with EKVX NSCLC is more than 100 µM; with K-562 leukemia, 57.1 µM; with LOX IMVI melanoma, 32.6 µM; in the experiment with M14 melanoma, 65.1 µM; in the experiment on OVCAR-4 ovarian, more than 100 µM; in the experiment with RXF 393 renal it was 37.8 µM. Besides, the results for the TGI with SF-268 CNS, with SK-OV-3 ovarian and with SR leukemia were more than 100 µM, 99.2 µM and 77.9 µM, respectively.

For `CCOC(=O)/C=C(/C(=O)OCC)n1ccc(=O)[nH]c1=O`, the TGI in the experiment on EKVX NSCLC was 23 µM; with HCC-2998 colon it was 32.3 µM; in the experiment on K-562 leukemia, 6.55 µM; with LOX IMVI melanoma, 22.3 µM; with M14 melanoma, 13.2 µM; in the experiment with OVCAR-4 ovarian it was 38.7 µM. Further, the TGI came to 13.8 µM in the experiment with RXF 393 renal, 39.6 µM in the experiment on SF-268 CNS, 32.9 µM in the experiment on SK-OV-3 ovarian and 16.8 µM in the experiment on SR leukemia.

Regarding `CCOC(=O)c1ccc(NC(NC(=O)CC)(C(F)(F)F)C(F)(F)F)cc1`, the TGI in the experiment with EKVX NSCLC, in the experiment with HCC-2998 colon, in the experiment with K-562 leukemia, in the experiment on LOX IMVI melanoma, in the experiment with M14 melanoma and in the experiment with RXF 393 renal was more than 100 µM in each case. Also, the TGI in the experiment with SF-268 CNS, with SK-OV-3 ovarian and with SR leukemia was more than 100 µM in each case.

For `O=[N+]([O-])c1ccc(-[n+]2ccc3ccccc3c2)c([N+](=O)[O-])c1`, the TGI was 19.4 µM in the experiment with EKVX NSCLC; 26.7 µM in the experiment on HCC-2998 colon; more than 23.2 µM with K-562 leukemia; 3.67 µM in the experiment with LOX IMVI melanoma; 8.69 µM with M14 melanoma; 3.04 µM in the experiment on OVCAR-4 ovarian. Also, the TGI with RXF 393 renal is 3.83 µM; with SF-268 CNS it was 11.9 µM; in the experiment with SK-OV-3 ovarian, 27.1 µM; with SR leukemia it was more than 100 µM.

As for `CC(=O)N1C(OCc2ccccc2)CCN1c1ccccc1` (centres undefined), the TGI in the experiment on K-562 leukemia, with LOX IMVI melanoma, with M14 melanoma, in the experiment with OVCAR-4 ovarian, in the experiment on RXF 393 renal and in the experiment on SF-268 CNS was more than 10 µM throughout. The TGI in the experiment on SK-OV-3 ovarian and in the experiment on SR leukemia was more than 10 µM in each case.

With `CC(C)(CN1CCCCC1)C(=O)/C=C/c1c(Cl)cccc1Cl`, the TGI with EKVX NSCLC was 3.24 µM; with HCC-2998 colon it was 3.23 µM; in the experiment on LOX IMVI melanoma, 2.68 µM; in the experiment with M14 melanoma it was 2.32 µM; in the experiment on OVCAR-4 ovarian, 4.98 µM; with RXF 393 renal, 2.39 µM. Moreover, the TGI is 3.88 µM in the experiment with SF-268 CNS, 8.47 µM in the experiment on SK-OV-3 ovarian and more than 100 µM with SR leukemia.

`CC(C)CC(NC(=O)C(N)CCC(=O)OCc1ccccc1)C(=O)NC(COCc1ccccc1)C(=O)NC(Cc1ccccc1)C(=O)ON1C(=O)CCC1=O` (centres undefined) (H-E(OBn)LS(Bn)F-OSu; configuration not given here): the TGI in the experiment with EKVX NSCLC is more than 100 µM; in the experiment on LOX IMVI melanoma, 50.7 µM; with M14 melanoma it was more than 100 µM; with OVCAR-4 ovarian, more than 100 µM; in the experiment on RXF 393 renal it was 78.2 µM; with SF-268 CNS, more than 100 µM. Further, the TGI in the experiment on SK-OV-3 ovarian stood at 87.8 µM; in the experiment with SR leukemia, 85.4 µM.

Take `COc1cc(C)cc(OC)c1/C=C/C(=O)O`: the TGI with EKVX NSCLC, with HCC-2998 colon, in the experiment with K-562 leukemia, with LOX IMVI melanoma, in the experiment on M14 melanoma and in the experiment on OVCAR-4 ovarian was more than 100 µM each time. Moreover, the TGI in the experiment with RXF 393 renal, in the experiment with SF-268 CNS and in the experiment on SR leukemia was more than 100 µM each time.

Regarding `Cc1ccc(CC(=O)Nc2ccc(NC(=O)CNC(=O)/C=C/c3ccc(-c4ccccc4)cc3)cc2C(=O)c2ccccc2)cc1`, the TGI in the experiment on EKVX NSCLC was determined as 15.8 µM; in the experiment with HCC-2998 colon, 4.98 µM; with K-562 leukemia, 10.3 µM; in the experiment with LOX IMVI melanoma, 13.4 µM; in the experiment on M14 melanoma it was 17.3 µM; in the experiment on RXF 393 renal, 6.6 µM. Moreover, the TGI with SF-268 CNS came out at 7.51 µM; with SK-OV-3 ovarian, 27.4 µM; in the experiment on SR leukemia it was 4.95 µM.

As to `S=C1CSc2c(cnc3ccccc23)N1`, the TGI in the experiment with EKVX NSCLC, with K-562 leukemia, in the experiment on LOX IMVI melanoma, with M14 melanoma, in the experiment with OVCAR-4 ovarian and in the experiment on RXF 393 renal was more than 100 µM each time. Further, the TGI with SF-268 CNS, in the experiment on SK-OV-3 ovarian and in the experiment with SR leukemia was more than 100 µM in each case.

With `COc1cc(C(CC(OC)OC)=C(C#N)C#N)cc(OC)c1OC`, the TGI with EKVX NSCLC is more than 100 µM; in the experiment with HCC-2998 colon, 40.4 µM; with LOX IMVI melanoma it was 25.1 µM; in the experiment on RXF 393 renal it was more than 100 µM; in the experiment on SF-268 CNS, more than 100 µM; with SK-OV-3 ovarian, more than 100 µM. In the experiment on SR leukemia, this molecule yielded a TGI of more than 100 µM.

`CCc1cc2c(oc3c4ccccc4ccc23)c(=O)[nH]1`: the TGI in the experiment with EKVX NSCLC, in the experiment on K-562 leukemia, with LOX IMVI melanoma, with M14 melanoma, with OVCAR-4 ovarian and in the experiment with RXF 393 renal was more than 10 µM throughout. Besides, the TGI with SF-268 CNS, in the experiment with SK-OV-3 ovarian and with SR leukemia was more than 10 µM in each case.

On to `C/C(NC(=O)c1ccccc1)=C(/C(=O)c1ccccc1)[C@@H]1OC(C)(C)O[C@@H]1[C@H]1COC(C)(C)O1`, for which the TGI in the experiment on EKVX NSCLC is 48.4 µM; in the experiment with HCC-2998 colon, 87.6 µM; in the experiment with K-562 leukemia it was 52.8 µM; in the experiment with LOX IMVI melanoma, 45.5 µM; in the experiment on M14 melanoma it was more than 100 µM; with OVCAR-4 ovarian, more than 100 µM. The TGI with RXF 393 renal is more than 100 µM; in the experiment with SF-268 CNS it was more than 100 µM; with SR leukemia, 38.5 µM.

Regarding `Cc1ccc(Nc2ccc(Nc3ccc(C)cc3S(=O)(=O)O)c3c2C(=O)c2ccccc2C3=O)c(S(=O)(=O)O)c1`, the TGI in the experiment with EKVX NSCLC, with HCC-2998 colon, in the experiment with K-562 leukemia, in the experiment on M14 melanoma, with OVCAR-4 ovarian and in the experiment on RXF 393 renal was more than 100 µM in each case. Also, the TGI in the experiment on SF-268 CNS, in the experiment on SK-OV-3 ovarian and with SR leukemia was more than 100 µM each time.

Turning to `Clc1cccc(N=C/C=C/Nc2cccc(Cl)c2)c1`, the TGI with HCC-2998 colon was 25.2 µM; in the experiment with LOX IMVI melanoma it was 20.6 µM; in the experiment with OVCAR-4 ovarian it was more than 100 µM; in the experiment on RXF 393 renal, 52.5 µM; in the experiment with SR leukemia it was 62.3 µM.
